Experimental data taken from patent US9850247B2 (Almac Discovery Limited, priority 2013, dated 2017).

Columns and labels:
Wee-1 kinase = target: T1, Wee-1 kinase (Homo sapiens, UniProt P30291); assay: Measurement of Wee-1 kinase activity (ADP-Glo luminescent kit); type: biochemical
T1 construct: purchased Invitrogen PV3817
Summary of the method: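 ADP-Glo luminescence reads ADP made over 1 h at RT, after an aliquot of 30 μM ATP and 2.0 μg/mL poly(Lys,Tyr 4:1) substrate. Before that, the kinase sat 30 min with inhibitor in Tris-HCl/MgCl2 buffer with BSA and DTT. IC50 came from regression of percent inhibition.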

[1] = test system: phospho-cdc2 (Tyr15) in HT-29 cells; assay: Effect on phosphorylation of cdc2 at Tyr15, PathScan ELISA (Method 2); type: cell-based; conditions: Homo sapiens, 8 h, eight hours incubation, read-out: HT29 pCDC2 method 2
Summary of the method: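 HT-29 cells exposed to compound for eight hours at 37° C., then lysed. Phospho-cdc2 (Tyr15) measured by sandwich ELISA with HRP/TMB read-out at 450 nm. Percent of DMSO control plotted vs concentration; IC50 from non-linear regression.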

T1 sequence (P30291 whole entry): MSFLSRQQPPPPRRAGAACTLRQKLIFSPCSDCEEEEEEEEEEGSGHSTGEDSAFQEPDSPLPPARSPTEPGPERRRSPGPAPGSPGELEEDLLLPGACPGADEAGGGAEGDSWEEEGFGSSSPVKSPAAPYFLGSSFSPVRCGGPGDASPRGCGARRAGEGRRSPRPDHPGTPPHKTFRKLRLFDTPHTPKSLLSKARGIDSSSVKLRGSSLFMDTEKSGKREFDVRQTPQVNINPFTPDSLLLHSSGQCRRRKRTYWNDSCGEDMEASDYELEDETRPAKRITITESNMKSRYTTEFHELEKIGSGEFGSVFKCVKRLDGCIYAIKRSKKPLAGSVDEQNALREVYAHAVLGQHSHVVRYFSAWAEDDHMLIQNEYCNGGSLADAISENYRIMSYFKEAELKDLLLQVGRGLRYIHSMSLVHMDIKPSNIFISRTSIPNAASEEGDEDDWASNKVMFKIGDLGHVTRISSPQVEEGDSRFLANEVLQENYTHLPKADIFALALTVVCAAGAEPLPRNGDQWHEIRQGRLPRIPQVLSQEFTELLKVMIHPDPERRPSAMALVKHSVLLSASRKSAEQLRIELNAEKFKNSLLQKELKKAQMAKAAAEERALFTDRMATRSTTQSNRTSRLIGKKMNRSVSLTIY

`Cc1cc(Nc2ncc3c(n2)N(C)CN(c2c(Cl)cccc2Cl)C3=O)ccc1C1CCNCC1` [Example 18, 3-(2,6-Dichlorophenyl)-1-methyl-7-((3-methyl-4-(piperidin-4-yl)phenyl)amino)-2,3-dihydropyrimido[4,5-d]pyrimidin-4(1H)-one] was tested, and the IC50 (Wee-1 kinase) was ≤ 10 nM and the IC50 [1] was 100 to 1000 nM.
`CN1CN(c2c(Cl)cccc2Cl)C(=O)c2cnc(Nc3ccc(N4CCN[C@@H](CO)C4)cc3)nc21` [Example 19, (R)-3-(2,6-Dichlorophenyl)-7-((4-(3-(hydroxymethyl)piperazin-1-yl)phenyl)amino)-1-methyl-2,3-dihydropyrimido[4,5-d]pyrimidin-4(1H)-one] was tested, and the IC50 (Wee-1 kinase) was ≤ 10 nM and the IC50 [1] was 100 to 1000 nM.
`CC(C)N1CCN(c2ccc(Nc3ncc4c(n3)N(C)CN(c3c(Cl)cccc3Cl)C4=O)cc2CO)CC1` [Example 21, 3-(2,6-Dichlorophenyl)-7-((3-(hydroxymethyl)-4-(4-isopropylpiperazin-1-yl)phenyl)amino)-1-methyl-2,3-dihydropyrimido[4,5-d]pyrimidin-4(1H)-one] was tested, and the IC50 (Wee-1 kinase) was 10 to 100 nM and the IC50 [1] was ≤ 100 nM.
`CN1CCc2ccc(Nc3ncc4c(n3)N(C)CN(c3c(Cl)cccc3Cl)C4=O)cc2C1` [Example 22, 3-(2,6-Dichlorophenyl)-1-methyl-7-((2-methyl-1,2,3,4-tetrahydroisoquinolin-7-yl)amino)-2,3-dihydropyrimido[4,5-d]pyrimidin-4(1H)-one] was tested, and the IC50 (Wee-1 kinase) was ≤ 10 nM and the IC50 [1] was ≤ 100 nM.
In the case of `CN1CN(c2c(F)cccc2Cl)C(=O)c2cnc(Nc3ccc(N4CCNCC4)cc3)nc21` [Example 25, 3-(2-Chloro-6-fluorophenyl)-1-methyl-7-((4-(piperazin-1-yl)phenyl)amino)-2,3-dihydropyrimido[4,5-d]pyrimidin-4(1H)-one], the IC50 (Wee-1 kinase) is reported as 10 to 100 nM and the IC50 [1] is reported as ≤ 100 nM.
In the case of `COCc1cc(Nc2ncc3c(n2)N(C)CN(c2c(Cl)cccc2Cl)C3=O)ccc1N1CCNCC1` [Example 31, 3-(2,6-dichlorophenyl)-7-((3-(methoxymethyl)-4-(piperazin-1-yl)phenyl)amino)-1-methyl-2,3-dihydropyrimido[4,5-d]pyrimidin-4(1H)-one], the IC50 (Wee-1 kinase) is reported as 10 to 100 nM and the IC50 [1] is reported as 100 to 1000 nM.
`C[C@@H]1CN[C@@H](C)CN1c1ccc(Nc2ncc3c(n2)N(C)CN(c2c(Cl)cccc2Cl)C3=O)cc1` [Example 40, 3-(2,6-dichlorophenyl)-7-((4-((2R,5S)-2,5-dimethylpiperazin-1-yl)phenyl)amino)-1-methyl-2,3-dihydropyrimido[4,5-d]pyrimidin-4(1H)-one] was tested, and the IC50 (Wee-1 kinase) was ≤ 10 nM and the IC50 [1] was ≤ 100 nM.
For `C[C@@H]1CN(c2ccc(Nc3ncc4c(n3)N(C)CN(c3c(Cl)cccc3Cl)C4=O)cc2F)CCN1` [Example 43, (R)-3-(2,6-dichlorophenyl)-7-((3-fluoro-4-(3-methylpiperazin-1-yl)phenyl)amino)-1-methyl-2,3-dihydropyrimido[4,5-d]pyrimidin-4(1H)-one], the IC50 (Wee-1 kinase) was ≤ 10 nM and the IC50 [1] was 100 to 1000 nM.
`C[C@@H]1CN(c2ccc(Nc3ncc4c(n3)N(C)CN(c3c(F)cccc3Cl)C4=O)cc2)CCN1` [Example 53, (R)-3-(2-chloro-6-fluorophenyl)-1-methyl-7-((4-(3-methylpiperazin-1-yl)phenyl)amino)-2,3-dihydropyrimido[4,5-d]pyrimidin-4(1H)-one] was tested, and the IC50 (Wee-1 kinase) was 10 to 100 nM and the IC50 [1] was ≤ 100 nM.
`COCc1cc(Nc2ncc3c(n2)N(C)CN(c2c(Cl)cccc2Cl)C3=O)ccc1N1CCN[C@H](C)C1` [Example 59, (R)-3-(2,6-dichlorophenyl)-7-((3-(methoxymethyl)-4-(3-methylpiperazin-1-yl)phenyl)amino)-1-methyl-2,3-dihydropyrimido[4,5-d]pyrimidin-4(1H)-one] showed an IC50 (Wee-1 kinase) of 10 to 100 nM and an IC50 [1] of 100 to 1000 nM.
In the case of `COC[C@H]1CN(c2ccc(Nc3ncc4c(n3)N(C)CN(c3c(Cl)cccc3Cl)C4=O)cc2)CCN1` [Example 60, (R)-3-(2,6-dichlorophenyl)-7-((4-(3-(methoxymethyl)piperazin-1-yl)phenyl)amino)-1-methyl-2,3-dihydropyrimido[4,5-d]pyrimidin-4(1H)-one], the IC50 (Wee-1 kinase) is reported as 10 to 100 nM and the IC50 [1] is reported as ≤ 100 nM.
`CN1CN(c2c(Cl)cccc2Cl)C(=O)c2cnc(Nc3ccc(N4CC5CCC(C4)N5)cc3)nc21` [Example 74, 7-((4-(3,8-diazabicyclo[3.2.1]octan-3-yl)phenyl)amino)-3-(2,6-dichlorophenyl)-1-methyl-2,3-dihydropyrimido [4,5-d]pyrimidin-4(1H)-one] was tested, and the IC50 (Wee-1 kinase) was 10 to 100 nM and the IC50 [1] was 100 to 1000 nM.
In the case of `C[C@@H]1CN(c2ccc(Nc3ncc4c(n3)N(C)CN(c3c(Cl)cccc3Cl)C4=O)cc2)[C@@H](C)CN1` [Example 80, 3-(2,6-dichlorophenyl)-7-((4-((2S,5R)-2,5-dimethylpiperazin-1-yl)phenyl)amino)-1-methyl-2,3-dihydropyrimido[4,5-d]pyrimidin-4(1H)-one], the IC50 (Wee-1 kinase) is reported as ≤ 10 nM and the IC50 [1] is reported as ≤ 100 nM.
For `CN1CN(c2c(Cl)cccc2Cl)C(=O)c2cnc(Nc3ccc(N4CC5CCC(C4)N5C)c(CO)c3)nc21` [Example 86, 3-(2,6-dichlorophenyl)-7-((3-(hydroxymethyl)-4-(8-methyl-3,8-diazabicyclo[3.2.1]octan-3-yl)phenyl)amino)-1-methyl-2,3-dihydropyrimido[4,5-d]pyrimidin-4(1H)-one], the IC50 (Wee-1 kinase) was ≤ 10 nM and the IC50 [1] was ≤ 100 nM.
